From article PMC3265452 (PLoS Neglected Tropical Diseases, 2012)
Where a name gives a salt, the structure may show the parent alone.

Each compound was assayed against AaDOP2 (Aedes aegypti, UniProt H6D5H2) (assay: AaDOP2 antagonist screen of the LOPAC1280 library (HEK-CRELuc-Aadop2 cells, luminescence)). Conditions: not given.
Type: cell-based

Sequence of AaDOP2 (H6D5H2 1-476): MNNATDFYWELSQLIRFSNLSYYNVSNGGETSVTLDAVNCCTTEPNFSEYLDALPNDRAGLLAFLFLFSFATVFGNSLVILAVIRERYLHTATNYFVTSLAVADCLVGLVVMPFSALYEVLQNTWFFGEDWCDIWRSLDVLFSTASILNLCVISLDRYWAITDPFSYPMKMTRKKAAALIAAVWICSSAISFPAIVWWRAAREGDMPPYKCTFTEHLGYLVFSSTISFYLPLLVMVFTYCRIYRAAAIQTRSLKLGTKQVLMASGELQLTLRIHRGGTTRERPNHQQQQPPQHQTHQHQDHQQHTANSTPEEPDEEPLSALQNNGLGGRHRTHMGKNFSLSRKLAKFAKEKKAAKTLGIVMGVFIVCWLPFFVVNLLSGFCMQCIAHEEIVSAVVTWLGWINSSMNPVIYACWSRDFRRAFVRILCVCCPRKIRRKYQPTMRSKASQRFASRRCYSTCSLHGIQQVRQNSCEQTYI

| Compound | Compound effect (percent receptor signaling in presence of test compound, relative lux units relative to the SCH23390 control) |
| --- | --- |
| CCc1cccc2c3c([nH]c12)C(CC)(CC(=O)O)OCC3 (centres unmarked) [Compound 472, Etodolac] | 98 |
| CNC(=O)[C@H]1O[C@@H](n2cnc3c(NCc4cccc(I)c4)nc(Cl)nc32)[C@H](O)[C@@H]1O [Compound 353, Chloro-IB-MECA] | 120 |
| Cc1ccc(S(=O)(=O)NC(=O)NN2CCCCCC2)cc1 [Compound 1160, Tolazamide] | 107 |
| Nc1c(S(=O)(=O)O)cc(Nc2ccc(Nc3nc(Cl)nc(Nc4cccc(S(=O)(=O)O)c4)n3)c(S(=O)(=O)O)c2)c2c1C(=O)c1ccccc1C2=O [Compound 1066, Reactive Blue 2] | 93 |
| S=C=Nc1ccc2oc(C3=NCCN3)cc2c1 [Compound 611, BU99006] | 104 |
| N=C(N)SCCc1cnc[nH]1 [Compound 673, Imetit dihydrobromide] | 91 |
| Cn1c(=O)c2[nH]cnc2n(C)c1=O.Cn1c(=O)c2[nH]cnc2n(C)c1=O.NCCN [Compound 26, Aminophylline ethylenediamine] | 129 |
| CCCCNc1c(C(=O)OCC)c(C)nc2c1cnn2CC [Compound 1223, Tracazolate] | 113 |
| CP(=O)(O)C1=CCNCC1 [Compound 1231, TPMPA] | 112 |
| Cl.N=C(N)NC(=N)Nc1cccc(Cl)c1 [Compound 339, 1-(m-Chlorophenyl)-biguanide hydrochloride] | 83 |
| O=C1Nc2ccc(I)cc2/C1=C/c1cc(Br)c(O)c(Br)c1 [Compound 555, GW5074] | 25 |
| CC1CNCCN1S(=O)(=O)c1cccc2cnccc12.Cl.Cl (centres unmarked) [Compound 653, 1-(5-Isoquinolinylsulfonyl)-2-methylpiperazine dihydrochloride] | 29 |
| Cc1oncc1C(=O)Nc1ccc(C(F)(F)F)cc1 [Compound 705, Leflunomide] | 97 |
| O=C(O)CCCCC1CCSS1 (racemic) [Compound 1185, (±)-alpha-Lipoic Acid] | 111 |
| CN(C)S(=O)(=O)c1ccc2c(c1)/C(=C/c1cc3c([nH]1)CCCC3)C(=O)N2 [Compound 1026, SU 6656] | 65 |
| C[N+]1(C)[C@@H]2CC[C@H]1C[C@@H](OC(=O)C(CO)c1ccccc1)C2 (some centres unmarked) [Compound 14, Atropine methyl nitrate] | 112 |
| C=CCc1ccccc1OCC(O)CNC1(C)CCC(C(C)(C)NC(=O)CBr)CC1 (centres unmarked) [Compound 198, Bromoacetyl alprenolol menthane] | 87 |
| Nc1nc(Cl)nc2c1ncn2[C@@H]1O[C@H](CO)[C@@H](O)[C@H]1O [Compound 270, 2-Chloroadenosine] | 118 |
| Cl.O=C(Cc1ccc(Cl)c(Cl)c1)N1CCCCC1CN1CCCC1 (centres unmarked) [Compound 1123, BRL 52537 hydrochloride] | 97 |
| Cc1ccc(Cl)c(Nc2ccccc2C(=O)O)c1Cl [Compound 769, Meclofenamic acid sodium] | 107 |

| Compound | Compound effect (percent receptor signaling in presence of test compound, relative lux units relative to the SCH23390 control) |
| --- | --- |
| C[C@]12CCC(=O)C=C1CC[C@@H]1[C@@H]2CC[C@]2(C)C(=O)CC[C@@H]12 [Compound 108, 4-Androstene-3,17-dione] | 115 |
| CO[C@@]1(NC(=O)CSCC#N)C(=O)N2C(C(=O)O)=C(CSc3nnnn3C)CS[C@@H]21 [Compound 283, Cefmetazole sodium] | 74 |
| Cl.NC1C=CC=C(C(=O)O)C1 (centres unmarked) [Compound 41, Gabaculine hydrochloride] | 106 |
| O=C(O)C1=CCNCC1 [Compound 561, Isoguvacine hydrochloride] | 71 |
| Oc1ccc2c3c1O[C@H]1[C@@H](O)CC[C@@]4(O)[C@@H](C2)N(CC2CCC2)CC[C@]314 [Compound 853, Nalbuphine hydrochloride] | 96 |
| CCOC(=O)C1=C(C)NC(=S)NC1c1cccc(O)c1 (centres unmarked) [Compound 803, Monastrol] | 103 |
| Cl.Oc1cc2c(cc1O)C(c1ccccc1)CNCC2 (racemic) [Compound 444, (±)-SKF-38393 hydrochloride] | 101 |
| COC(=O)C1=CCCN(C)C1 [Compound 69, Arecoline hydrobromide] | 104 |
| CN(C)CCC(c1ccc(Cl)cc1)c1ccccn1.O=C(O)/C=C\C(=O)O (racemic) [Compound 243, (±)-Chlorpheniramine maleate] | 77 |
| C[C@]12CC[C@@H](O)C[C@@H]1CC[C@@H]1[C@@H]2CC[C@]2(C)[C@@H](O)CC[C@@H]12 [Compound 86, 5alpha-Androstane-3alpha,17beta-diol] | 98 |
| Cn1c(=O)[nH]c2ncn(C)c2c1=O [Compound 391, 1,7-Dimethylxanthine] | 94 |
| CCCC(CCC)C(=O)O [Compound 945, Valproic acid sodium] | 85 |
| CC(CCc1ccccc1)NC(C)C(O)c1ccc(O)cc1 (centres unmarked) [Compound 884, Nylidrin hydrochloride] | 86 |
| Nc1ncnc2c1ncn2C1CCCC1 [Compound 260, 9-cyclopentyladenine] | 116 |
| Cc1nc2sccn2c(=O)c1CCN1CCC(=C(c2ccc(F)cc2)c2ccc(F)cc2)CC1 [Compound 1061, Ritanserin] | 18 |
| Cc1nc(N=Nc2ccc(C(=O)O)cc2)c(COP(=O)(O)O)c(C=O)c1O [Compound 798, MRS 2159] | 91 |
| Cn1cnc([N+](=O)[O-])c1Sc1ncnc2nc[nH]c12 [Compound 51, Azathioprine] | 103 |
| N#Cc1c(-c2ccccc2)no[n+]1[O-] [Compound 925, 4-Phenyl-3-furoxancarbonitrile] | 93 |
| NCCCP(=O)(O)O [Compound 80, 3-Aminopropylphosphonic acid] | 101 |
| COC(=O)N1CCN(C(=O)Cc2ccc(Cl)c(Cl)c2)C(CN2CCCC2)C1.O=C(O)/C=C/C(=O)O (centres unmarked) [Compound 570, GR-89696 fumarate] | 79 |

Same assay, conditions: 10 µM compound, 300 nM dopamine, 2 hr

| Compound | % of the SCH23390 effect (percent inhibition of receptor response relative to the SCH23390 control) [%] |
| --- | --- |
| Cc1nc2sccn2c(=O)c1CCN1CCC(=C(c2ccccc2)c2ccc(F)cc2)CC1 [Compound 401, Diacylglycerol kinase inhibitor I] | 90 |

Same assay, conditions: 10 µM compound, 300 nM dopamine, 2 hr; hit = compound effect <20

| Compound | Compound effect (percent receptor signaling in presence of test compound, relative lux units relative to the SCH23390 control) [%] |
| --- | --- |
| Cc1ccc(OCC(O)C(C)NC(C)C)c2c1CCC2.Cl (centres unmarked) [Compound 672, ICI 118,551 hydrochloride] | 92 |
| Cl.c1ccc2nc(C3=NCCN3)ccc2c1 [Compound 209, BU224 hydrochloride] | 92 |
| Cl.NC(N)=NCCNS(=O)(=O)c1cccc2cnccc12 [Compound 619, HA-1004 hydrochloride] | 89 |
| CCCC(C(=O)OCCN(CC)CC)(c1ccccc1)c1ccccc1.Cl [Compound 923, SKF-525A hydrochloride] | 88 |
| CCN(CC)C(=O)c1ccc(O)c(OC)c1 [Compound 470, Vanillic acid diethylamide] | 101 |
| Cc1nc2sccn2c(=O)c1CCN1CCC(=C(c2ccccc2)c2ccc(F)cc2)CC1 [Compound 401, Diacylglycerol kinase inhibitor I] | 10 |
| O=C(O)/C=C\C(=O)O.O=[N+]([O-])c1ccc2nc(N3CCNCC3)ccc2c1 [Compound 1037, Quipazine, 6-nitro-, maleate] | 92 |
| C[N+]1(C)CCC(OC(=O)C(c2ccccc2)c2ccccc2)CC1.[I-] [Compound 449, 4-DAMP methiodide] | 97 |
| Cl.c1ccc(CN(CC2=NCCN2)c2ccccc2)cc1 [Compound 115, Antozoline hydrochloride] | 115 |
| Br.C=CCN1CCc2c(cc(O)c(O)c2Cl)C(c2ccccc2)C1 (racemic) [Compound 336, (±)-Chloro-APB hydrobromide] | 77 |
| (-)-Perillic acid [Compound 965] | 87 |

Same assay, conditions: read-out: % of the SCH23390 effect (percent inhibition of receptor response relative to the SCH23390 control)

| Compound | inhibition at 10 µM [%] |
| --- | --- |
| Cc1nc2sccn2c(=O)c1CCN1CCC(=C(c2ccc(F)cc2)c2ccc(F)cc2)CC1 [Compound 1061, Ritanserin] | 83 |
